From ChEMBL document CHEMBL1144964, “Inhibition of mandelate racemase by alpha-fluorobenzylphosphonates” (Bioorg Med Chem Lett, 2003)

Assays:
Mandelate racemase = molecular target: T1, Mandelate racemase (Pseudomonas putida, UniProt P11444); assay: Inhibition constant against Mandelate racemase from Pseudomonas putida at pH 7.5
T1 sequence (P11444 whole entry): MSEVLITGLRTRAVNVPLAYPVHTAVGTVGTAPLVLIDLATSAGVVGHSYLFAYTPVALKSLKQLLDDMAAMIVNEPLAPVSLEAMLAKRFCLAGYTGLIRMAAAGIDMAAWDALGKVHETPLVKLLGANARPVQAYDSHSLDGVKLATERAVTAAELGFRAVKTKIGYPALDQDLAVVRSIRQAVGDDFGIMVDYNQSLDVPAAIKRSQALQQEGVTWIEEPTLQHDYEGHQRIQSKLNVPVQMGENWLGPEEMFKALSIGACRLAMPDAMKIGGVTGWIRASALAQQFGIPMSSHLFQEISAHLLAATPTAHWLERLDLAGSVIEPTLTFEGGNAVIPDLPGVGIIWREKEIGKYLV

[1] = Inhibition constant against Mandelate racemase from Pseudomonas putida at pH 6.3
[2] = pKa2 (Dissociation constant) value (phosphonate group) was determined; assay type: physicochemical; conditions: read-out: pKa2
[3] = Inhibition constant against mandelate racemase from Pseudomonas putida at pH 6.3

| SMILES | Ki (Mandelate racemase) [µM] | Ki [1] [µM] | pKa [2] | Ki [3] [µM] |
| --- | --- | --- | --- | --- |
| O=P(O)(O)[C@H](F)c1ccccc1 | 530 | 87 |  |  |
| O=P(O)(O)C(O)c1ccccc1 (racemic) [ALPHA HYDROXY BENZYLPHOSPHONATE] | 4.7 |  | 6.89 |  |
| O=P(O)(O)[C@@H](O)c1ccccc1 | 34 |  | 6.89 |  |
| O=P(O)(O)[C@H](O)c1ccccc1 | 1.1 |  | 6.89 |  |
| O=P(O)(O)C(F)(F)c1ccccc1 | 12000 |  |  | 1000 |
| O=P(O)(O)C(F)c1ccccc1 (racemic) | 810 |  |  |  |
| O=P(O)(O)[C@@H](F)c1ccccc1 | 1110 |  |  |  |
| O=P(O)(O)Cc1ccccc1 [BENZYLPHOSPHONIC ACID] | 3600 |  |  |  |
| O=C(c1ccccc1)P(=O)(O)O [BENZOYLPHOSPHONATE] | 300 |  | 5.46 |  |
